Test results published in patent publication US20190022073A1, “PHARMACEUTICAL COMPOSITION COMPRISING RAPAMYCIN OR DERIVATIVE THEREOF” (NIPPON KAYAKU KABUSHIKI KAISHA, priority 2015, published 2019).

Assay: pH of the stabilizer (additive) in water/ethanol mixture, measured by pH meter MM-60R (TOA DKK)
Details: 5 mg/mL in water/EtOH=1:1 mixture
Procedure: The pH of the (B) component can be measured by preparing 50% (v/v) ethanol aqueous solution containing 5 mg/mL of the (B) component, and measuring pH using commercially available pH meter. For example, pH can be measured by using MM-60R (TOA DKK).

SMILES	pH of the additive used as stabilizer
O=C1O[C@H]([C@@H](O)CO)C([O-])=C1O.[Na+] [sodium ascorbate]	8.4
O=C([O-])CC(O)(CC(=O)[O-])C(=O)O.[Na+].[Na+] [disodium hydrogen citrate]	6.3
